Assay results from patent publication US12077503B2, “Substituted cyclic amides and their use as herbicides” (FMC CORPORATION, priority 2015, dated 2024).

Tests used:
Assay type in all cases: in vivo
Kochia (Kochia scoparia) [1] = experiment: Test A preemergence; conditions: for Kochia plant response rating (0 to 100 scale): Preemergence, 0 is no effect, 100 is complete control
From the text: (§1) Seeds of plant species selected from barnyardgrass (Echinochloa crus-galli), Kochia (Kochia scoparia), ragweed (common ragweed, Ambrosia elatior), ryegrass, Italian (Italian ryegrass, Lolium multiflorum), crabgrass, large (Digitaria sanguinalis), giant foxtail (Setaria faberii), green foxtail (Setaria viridis), morningglory (Ipomoea spp.), pigweed (Amaranthus retroflexus), velvetleaf (Abutilon theophrasti), wheat (Triticum aestivum), and corn (Zea mays) were planted into a blend of loam soil and sand and treated preemergence with a directed soil spray using test chemicals formulated in anon-phytotoxic solvent mixture which included a surfactant.
(§2) At the same time, plants selected from these crop and weed species and also blackgrass (Alopecurus myosuroides), and Galium (catchweed bedstraw, Galium aparine) were planted in pots containing the same blend of loam soil and sand and treated with postemergence applications of test chemicals formulated in the same manner. Plants ranged in height from 2 to 10 cm and were in the one- to two-leaf stage for the postemergence treatment. Treated plants and untreated controls were maintained in a greenhouse for approximately 10 d, after which time all treated plants were compared to untreated controls and visually evaluated for injury. Plant response ratings, summarized in Table A, are based on a 0 to 100 scale where 0 is no effect and 100 is complete control. A dash (-) response means no test result.

[2] = tested on: barnyardgrass (Echinochloa crus-galli); experiment: Test A preemergence; conditions: for Barnyardgrass plant response rating (0 to 100 scale): Preemergence, 0 is no effect, 100 is complete control
From the text: as §1, §2

[3] = tested on: giant foxtail (Setaria faberii); experiment: Test A preemergence; conditions: for Foxtail, Giant plant response rating (0 to 100 scale): Preemergence, 0 is no effect, 100 is complete control
From the text: as §1, §2

[4] = tested on: pigweed (Amaranthus retroflexus); experiment: Test A preemergence; conditions: for Pigweed plant response rating (0 to 100 scale): Preemergence, 0 is no effect, 100 is complete control
From the text: as §1, §2

[5] = tested on: ragweed (common ragweed, Ambrosia elatior); experiment: Test A preemergence; conditions: for Ragweed plant response rating (0 to 100 scale): Preemergence, 0 is no effect, 100 is complete control
From the text: as §1, §2

[6] = tested on: ryegrass, Italian (Italian ryegrass, Lolium multiflorum); experiment: Test A preemergence; conditions: for Ryegrass, Italian plant response rating (0 to 100 scale): Preemergence, 0 is no effect, 100 is complete control
From the text: as §1, §2

[7] = tested on: Galium (catchweed bedstraw, Galium aparine); experiment: Test A postemergence; conditions: postemergence; for Plant response rating, Galium: 0 to 100 scale, 0 no effect, 100 complete control
From the text: as §1, §2

Kochia (Kochia scoparia) [8] = experiment: Test A postemergence; conditions: postemergence; for Plant response rating, Kochia: 0 to 100 scale, 0 no effect, 100 complete control
From the text: as §1, §2

[9] = tested on: barnyardgrass (Echinochloa crus-galli); experiment: Test A postemergence
From the text: as §1, §2

[10] = tested on: blackgrass (Alopecurus myosuroides); experiment: Test A postemergence
From the text: as §1, §2

corn (Zea mays) = experiment: Test A postemergence; conditions: postemergence; for Plant response rating, Corn: 0 to 100 scale, 0 no effect, 100 complete control
From the text: as §1, §2

[11] = tested on: giant foxtail (Setaria faberii); experiment: Test A postemergence; conditions: postemergence; for Plant response rating, Foxtail, Giant: 0 to 100 scale, 0 no effect, 100 complete control
From the text: as §1, §2

[12] = tested on: pigweed (Amaranthus retroflexus); experiment: Test A postemergence; conditions: postemergence; for Plant response rating, Pigweed: 0 to 100 scale, 0 no effect, 100 complete control
From the text: as §1, §2

[13] = tested on: ragweed (common ragweed, Ambrosia elatior); experiment: Test A postemergence; conditions: postemergence; for Plant response rating, Ragweed: 0 to 100 scale, 0 no effect, 100 complete control
From the text: as §1, §2

[14] = tested on: ryegrass, Italian (Italian ryegrass, Lolium multiflorum); experiment: Test A postemergence; conditions: postemergence; for Plant response rating, Ryegrass, Italian: 0 to 100 scale, 0 no effect, 100 complete control
From the text: as §1, §2

[15] = tested on: wheat (Triticum aestivum); experiment: Test A postemergence; conditions: postemergence; for Plant response rating, Wheat: 0 to 100 scale, 0 no effect, 100 complete control
From the text: as §1, §2

[16] = 125 g ai/ha, preemergence, 0 to 100 scale (0 no effect, 100 complete control)
[17] = 125 g ai/ha, visual injury rating on 0 to 100 scale (0 no effect, 100 complete control), approx. 10 d
[18] = 500 g ai/ha, postemergence, 0 to 100 scale, 0 no effect, 100 complete control
[19] = Postemergence, 125 g ai/ha, visual injury, 0 to 100 scale (0 no effect, 100 complete control), approx. 10 d
[20] = 1000 g ai/ha, postemergence, 0 to 100 scale, 0 no effect, 100 complete control

`O=C1NCC(c2cccc(O)c2)C1C(=O)Nc1cccc(F)c1F` (racemic) [Compound 384] was tested, and the “Plant response rating, Kochia” value (Kochia (Kochia scoparia) [1]; [16]) was 0, the “Kochia plant response rating (0 to 100 scale)” value (Kochia (Kochia scoparia) [1]; 500 g ai/ha) was 0 and the “Plant response rating, Barnyardgrass” value [2, 16] was 0. For the same compound, the “Barnyardgrass plant response rating (0 to 100 scale)” value ([2]; 500 g ai/ha) was 0, the “Plant response rating, Foxtail, Giant” value [3, 16] was 0 and the “Foxtail, Giant plant response rating (0 to 100 scale)” value ([3]; 500 g ai/ha) was 0. The “Plant response rating, Pigweed” value [4, 16] was 0, the “Pigweed plant response rating (0 to 100 scale)” value ([4]; 500 g ai/ha) was 0 and the “Plant response rating, Ragweed” value [5, 16] was 0. For the same compound, the “Ragweed plant response rating (0 to 100 scale)” value ([5]; 500 g ai/ha) was 0, the “Plant response rating, Ryegrass, Italian” value [6, 16] was 0 and the “Ryegrass, Italian plant response rating (0 to 100 scale)” value ([6]; 500 g ai/ha) was 0. The “Galium plant response rating” value [7, 17] was 0, the “Plant response rating, Galium” value ([7]; 500 g ai/ha) was 0 and the “Kochia plant response rating” value (Kochia (Kochia scoparia) [8]; [17]) was 0. For the same compound, the “Plant response rating, Kochia” value (Kochia (Kochia scoparia) [8]; 500 g ai/ha) was 0, the “Plant response rating, Barnyardgrass” value [9, 18] was 0 and the “Plant response rating, Barnyardgrass” value [9, 19] was 0. The “Plant response rating, Blackgrass” value [10, 18] was 0, the “Plant response rating, Blackgrass” value [10, 19] was 0 and the “Corn plant response rating” value (corn (Zea mays); [17]) was 0. The “Plant response rating, Corn” value (corn (Zea mays); 500 g ai/ha) was 0, the “Foxtail, Giant plant response rating” value [11, 17] was 0 and the “Plant response rating, Foxtail, Giant” value ([11]; 500 g ai/ha) was 0. The “Pigweed plant response rating” value [12, 17] was 0, the “Plant response rating, Pigweed” value ([12]; 500 g ai/ha) was 0 and the “Ragweed plant response rating” value [13, 17] was 0. The “Plant response rating, Ragweed” value ([13]; 500 g ai/ha) was 0, the “Ryegrass, Italian plant response rating” value [14, 17] was 0 and the “Plant response rating, Ryegrass, Italian” value ([14]; 500 g ai/ha) was 0. For the same compound, the “Wheat plant response rating” value [15, 17] was 0 and the “Plant response rating, Wheat” value ([15]; 500 g ai/ha) was 0.

For `O=C(Nc1cccc(F)c1F)C1C(=O)N(CC=Cc2ccccc2)CC1c1cc(F)cc(F)c1` (stereo not drawn) [Compound 511], the “Kochia plant response rating (0 to 100 scale)” value (Kochia (Kochia scoparia) [1]; 1000 g ai/ha) was 0, the “Barnyardgrass plant response rating (0 to 100 scale)” value ([2]; 1000 g ai/ha) was 90 and the “Foxtail, Giant plant response rating (0 to 100 scale)” value ([3]; 1000 g ai/ha) was 90. For the same compound, the “Pigweed plant response rating (0 to 100 scale)” value ([4]; 1000 g ai/ha) was 0, the “Ragweed plant response rating (0 to 100 scale)” value ([5]; 1000 g ai/ha) was 0 and the “Ryegrass, Italian plant response rating (0 to 100 scale)” value ([6]; 1000 g ai/ha) was 0. For the same compound, the “Plant response rating, Galium” value ([7]; 1000 g ai/ha) was 0, the “Plant response rating, Kochia” value (Kochia (Kochia scoparia) [8]; 1000 g ai/ha) was 0 and the “Plant response rating, Barnyardgrass” value [9, 20] was 90. For the same compound, the “Plant response rating, Blackgrass” value [10, 20] was 20, the “Plant response rating, Corn” value (corn (Zea mays); 1000 g ai/ha) was 0 and the “Plant response rating, Foxtail, Giant” value ([11]; 1000 g ai/ha) was 90. For the same compound, the “Plant response rating, Pigweed” value ([12]; 1000 g ai/ha) was 0, the “Plant response rating, Ragweed” value ([13]; 1000 g ai/ha) was 0 and the “Plant response rating, Ryegrass, Italian” value ([14]; 1000 g ai/ha) was 0. The “Plant response rating, Wheat” value ([15]; 1000 g ai/ha) was 0.
